Reference: patent US20260335323A1, “CHIMERIC MOLECULE” (UCL Business Ltd, priority 2023, published 2026)

Biological target: T1, ULK1 (Homo sapiens, UniProt O75385)
T1 sequence (O75385 1-1050): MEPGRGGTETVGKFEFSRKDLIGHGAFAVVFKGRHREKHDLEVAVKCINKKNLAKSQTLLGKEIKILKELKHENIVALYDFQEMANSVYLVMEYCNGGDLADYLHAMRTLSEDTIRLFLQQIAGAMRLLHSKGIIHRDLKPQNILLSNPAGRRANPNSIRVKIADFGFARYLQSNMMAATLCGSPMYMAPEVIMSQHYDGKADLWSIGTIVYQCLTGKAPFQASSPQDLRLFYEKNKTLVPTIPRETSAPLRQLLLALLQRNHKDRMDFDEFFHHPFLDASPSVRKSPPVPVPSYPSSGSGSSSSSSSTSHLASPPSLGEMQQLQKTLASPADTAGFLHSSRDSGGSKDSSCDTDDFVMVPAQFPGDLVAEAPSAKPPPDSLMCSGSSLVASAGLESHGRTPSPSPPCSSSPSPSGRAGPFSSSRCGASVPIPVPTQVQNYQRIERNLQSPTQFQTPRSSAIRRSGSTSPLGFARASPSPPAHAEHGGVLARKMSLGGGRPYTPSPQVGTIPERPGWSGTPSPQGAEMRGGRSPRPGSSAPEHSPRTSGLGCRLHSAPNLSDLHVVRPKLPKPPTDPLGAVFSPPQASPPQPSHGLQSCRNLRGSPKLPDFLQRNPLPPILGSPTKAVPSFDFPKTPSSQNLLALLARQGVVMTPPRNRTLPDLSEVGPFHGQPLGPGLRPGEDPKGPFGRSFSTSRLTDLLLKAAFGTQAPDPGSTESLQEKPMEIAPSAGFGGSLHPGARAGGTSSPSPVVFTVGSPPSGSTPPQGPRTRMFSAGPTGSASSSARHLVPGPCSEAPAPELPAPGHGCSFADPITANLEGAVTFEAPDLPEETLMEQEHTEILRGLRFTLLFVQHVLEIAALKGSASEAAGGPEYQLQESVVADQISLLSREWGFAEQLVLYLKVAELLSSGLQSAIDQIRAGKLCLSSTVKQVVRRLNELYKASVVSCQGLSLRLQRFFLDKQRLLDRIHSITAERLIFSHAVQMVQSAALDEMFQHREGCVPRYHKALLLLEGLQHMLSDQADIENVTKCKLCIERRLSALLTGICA
Assay: ULK1/TOM20 co-localisation immunofluorescence in PANC-1 cells
Format: cell-based
Design: pSer317 blot or TOM20 co-localisation
Method: FIG. 5. ULKTACs induce potent mitophagy after colocalisation and local activation of ULK1 at mitochondria (A) Representative immunofluorescence of PANC-1 cells treated with CCCP, ULKTACs or both and immunostained for TOM20 and ULK1 and counterstained with Alexa 488 and 568, respectively. Nuclei stained with Hoechst 33342. (B) Quantification of the colocalised ULK1 to TOM20 spot area of PANC-1 cells treated with DMSO, 5 mM CCCP, 10 mM BL-918, 10 mM BL-918+5 mM CCCP, […] NZ-65, […] NZ-65+5 mM CCCP, […] NZ-66, […] NZ-66+5 mM CCCP, 50 mM TSPO ligand, […] NZ-65+50 mM TSPO ligand, […] NZ-66+50 mM TSPO ligand. (C) Western blot of SH-SY5Y cells treated with 1 mM ULKTACs, 5 mM CCCP or both, probed for Mfn2, b-Actin and Tom20—quantifications are shown in (D) for Mfn2, normalised to Actin. (E) Representative images of SH-SY5Y cells stably expressing the mito-mKeima reporter treated with 3 mM CCCP, NZ-65 or both. Nuclei were stained with Hoechst 33342, healthy mitochondria are shown in green and mitochondria in lysosomes are shown in red. Fold change in mitophagy index over time after treatment for the indicated timepoints with title treatments alone or co-treated with 1.25 mM ULKTAC or 10 mM ULKTAC NZ-65 (F) or NZ-66 (G). Fold change in mitophagy index over time after treatment for the indicated timepoints with DMSO, 1.25 µM NZ-65 or NZ-66±50 µM TSPO ligand under co-treatment with DMSO (H) or 3 μM CCCP (I). […] Normalised to number of nuclei. All data shown are mean±SEM, n=3, *p<0.05, ** p<0.01, *** p<0.001. For colocalisation and TMRM experiments, one-way ANOVA with Dunnett's multiple comparisons test. For western blots, one-way ANOVA with Tukey's multiple comparisons test and unpaired t-test. For mito-mKeima experiment, two-way ANOVA with Tukey's multiple comparisons test.
For TOM20/ULK1 immunofluorescence, cells were seeded in a 384 well PerkinElmer CellCarrier Ultra plate 24 hours prior to treatment with compounds. Cells were treated for 18 hours after which they were fixed with 4% paraformaldehyde (PFA) in phosphate buffered saline (PBS) and blocked with 10% FBS and 0.1% Triton in PBS. Plates were incubated at 4° C. overnight, with 1:400 mouse anti-TOM20 (Santa Cruz, #sc-17764) and 1:400 rabbit anti-ULK1 (Cell Signalling Technologies, #0854). The following day, plates were incubated with 1:1000 goat anti-mouse Alexa 488 (ThermoFisher Scientific, #A-11029), 1:1000 goat anti-rabbit Alexa 568 (ThermoFisher Scientific, #A-11011) and 1.62 μM Hoechst 33342 at room temperature for 1 hour before imaging. For ATP5a/LC3 immunofluorescence, cells were fixed with ice-cold 1:1 MeOH: acetone and blocked with 3% BSA (Sigma-Aldrich, #A3803) in Dulbecco's PBS (D-PBS). Plates were incubated overnight at 4° C. with 1:400 LC3B (D11) XP Rabbit mAb Alexa Fluor 647 Conjugate (Cell Signalling Technologies, #65299) and 1:400 ATP5a (Cell Signalling Technologies, #18023) lightning-linked to Alexa Fluor 488. The following day, plates were incubated with 1.62 […] at room temperature for 1 hour before imaging. Excitation and emission spectra for each channel are as follows: Hoechst 33342=405/435-480 nm, Alexa 488=488/500-550 nm and Alexa 568=561/570-630 nm. Images were acquired at 40× and 63× magnification with water immersion lens.
To understand the temporal kinetics of NZ-65 and NZ-66, we assessed the recruitment of ULK1 to mitochondria, using co-localisation of ULK1 and TOM20 by immunofluorescence. […] After showing the co-localisation of ULK1 to the outer mitochondrial membrane (OMM) after ULKTAC treatment, we wanted to determine whether the ULKTACs induced mitophagy. To do this, we measured changes in Mfn2 under basal conditions and co-treatment with CCCP (FIG. 5C, D).

| co-localisation of ULK1 and TOM20 (PANC-1, CCCP co-treatment) | SMILES | co-localisation of ULK1 and TOM20 (PANC-1, 18 hours, alone) |
| --- | --- | --- |
| enhanced by CCCP co-treatment | O=C(Nc1cc(C(F)(F)F)cc(C(F)(F)F)c1)N[C@@H](C(=O)Nc1ccc(F)cc1F)c1ccc(OCc2cn(CCOCCOCCNC(=O)C(=O)c3c(-c4ccccc4)[nH]c4ccccc34)nn2)cc1 [NZ-65, (R)-2-(3-(3,5-bis(trifluoromethyl)phenyl)ureido)-N-(2,4-difluorophenyl)-2-(4-((1-(2-(2-(2-(2-oxo-2-(2-phenyl-1H-indol-3-yl)acetamido)ethoxy)ethoxy)ethyl)-1H-1,2,3-triazol-4-yl)methoxy)phenyl) acetamide] | increased co-localisation of ULK1 and TOM20 |
| enhanced by CCCP co-treatment | O=C(Nc1cc(C(F)(F)F)cc(C(F)(F)F)c1)N[C@@H](C(=O)Nc1ccc(F)cc1F)c1ccc(OCc2cn(CCCCCCNC(=O)C(=O)c3c(-c4ccccc4)[nH]c4ccccc34)nn2)cc1 [NZ-66, (R)-2-(3-(3,5-bis(trifluoromethyl)phenyl)ureido)-N-(2,4-difluorophenyl)-2-(4-((1-(6-(2-oxo-2-(2-phenyl-1H-indol-3-yl)acetamido)hexyl)-1H-1,2,3-triazol-4-yl)methoxy)phenyl) acetamide] | increased co-localisation of ULK1 and TOM20 |
|  | O=C(Nc1ccc(F)cc1F)[C@H](NC(=S)Nc1cc(C(F)(F)F)cc(C(F)(F)F)c1)c1ccccc1 [BL-918, reference compound] | neither BL-918 nor the TSPO ligand alone induce co-localisation |
